According to the supplement of paper PMC10307832:

Assays:
Test in all cases: relative viability (nuclei count vs DMSO), 5 days (fraction); higher = more cells survive
[1] = compound: C[As](C)SC[C@H](NC(=O)CC[C@H](N)C(=O)O)C(=O)NCC(=O)O [Darinaparsin] + COc1cc2c(Oc3ccc(NC(=O)C4(C(=O)Nc5ccc(F)cc5)CC4)cc3F)ccnc2cc1OCCCN1CCOCC1 [Foretinib] (partner 0.25 µM)
In short: (§1)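 A single step with final 0.05% Triton X-100, 1% formaldehyde and 1 ug/ml Hoechst fixed the cells and stained nuclei 5 days after treatment. Lung cancer cell lines in 1536-well plates had been treated by pin tool the day after seeding with one drug alone or a fixed anchor-drug dose plus five library-drug doses (not always all listed) in √10 steps, and nuclei were counted on 4× images. Relative viability is the ratio of nuclei in treated wells to nuclei in vehicle wells, taken as the median of duplicate plates.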

[2] = compound: C1CC2=C(C1)C=C(C=C2)OC3=NC(=C4C(=N3)N(C=N4)CC5=CC=C(C=C5)C6=CC=CC=C6)N[C@@H](CC7=CC=CC=C7)CO [QS11] + C[C@]1(O)C[C@@H](c2nc(-c3ccc4ccc(-c5ccccc5)nc4c3)c3c(N)nccn32)C1 [Linsitinib] (partner 1 µM)
In short: as §1

[3] = compound: CC1=C(C=C(C=C1)NC(=O)C2=CC(=CC=C2)C(C)(C)C#N)NC3=CC4=C(C=C3)N=CN(C4=O)C [AZ628] + CC1(C)CCC(c2ccc(Cl)cc2)=C(CN2CCN(c3ccc(C(=O)NS(=O)(=O)c4ccc(N[C@H](CCN5CCOCC5)CSc5ccccc5)c(S(=O)(=O)C(F)(F)F)c4)cc3)CC2)C1 [Navitoclax] (partner 0.5 µM)
In short: as §1

[4] = compound: C[As](C)SC[C@H](NC(=O)CC[C@H](N)C(=O)O)C(=O)NCC(=O)O [Darinaparsin] + Cc1nc(NC(=O)N2CCC[C@H]2C(N)=O)sc1-c1ccnc(C(C)(C)C(F)(F)F)c1 [Alpelisib] (partner 2 µM)
In short: as §1

| Cell Line | relative viability ([1]; first compound 0.08 µM) | relative viability ([1]; first compound 0.8 µM) | relative viability ([1]; first compound 2.53 µM) | relative viability ([1]; first compound 8 µM) | relative viability ([2]; first compound 0.08 µM) | relative viability ([2]; first compound 0.253 µM) | relative viability ([2]; first compound 0.8 µM) | relative viability ([2]; first compound 2.53 µM) | relative viability ([2]; first compound 8 µM) | relative viability ([3]; first compound 0.08 µM) | relative viability ([3]; first compound 0.253 µM) | relative viability ([3]; first compound 0.8 µM) | relative viability ([3]; first compound 2.53 µM) | relative viability ([3]; first compound 8 µM) | relative viability ([4]; first compound 0.08 µM) | relative viability ([4]; first compound 0.8 µM) | relative viability ([4]; first compound 2.53 µM) | relative viability ([4]; first compound 8 µM) |
| --- | --- | --- | --- | --- | --- | --- | --- | --- | --- | --- | --- | --- | --- | --- | --- | --- | --- | --- |
| 201T | 1.2 | 1.15 | 1.19 | 1.03 | 1.01 | 1.01 | 0.847 | 1.01 | 0.888 | 1.22 | 1.21 | 1.25 | 1.27 | 1.23 | 1.12 | 1.03 | 0.997 | 0.82 |
| A549 | 1.27 | 0.991 | 0.896 | 1.41 | 0.506 | 0.558 | 0.507 | 0.475 | 0.885 | 1.19 | 1.16 | 1.02 | 1.12 | 0.589 | 0.973 | 0.812 | 0.746 | 1.08 |
| A-427 | 1.35 | 1.15 | 0.989 | 1.32 | 1.12 | 1.1 |  | 1.14 | 1.09 | 0.875 | 0.826 | 0.726 | 0.671 | 0.31 | 1.11 | 1.05 | 1.08 | 1.12 |
| ABC-1 | 1.36 | 0.995 | 1.18 | 1.08 | 0.955 | 0.646 | 0.88 | 0.801 | 0.929 |  |  |  |  |  | 0.966 | 1.16 | 1.07 | 1.28 |
| BEN | 0.668 | 0.708 | 0.621 | 0.691 | 0.851 | 1.17 | 1.07 | 0.79 | 1.12 | 0.0576 | 0.0642 | 0.0651 | 0.0689 | 0.0471 | 0.963 | 1.09 | 0.956 | 1.33 |
| CAL-12T | 1.23 | 0.983 | 1.12 | 1.14 | 1.01 | 0.693 | 0.695 | 0.688 | 0.7 | 1.33 |  | 1.24 | 1.28 | 0.826 | 1.41 | 1.01 | 1.28 | 1.89 |
| COR-L23 | 1.21 | 1.04 | 0.934 | 1.34 | 0.938 | 1.01 | 0.767 | 0.784 | 0.625 | 1.02 | 1.12 | 1.2 | 1.07 | 0.492 | 1.02 | 0.707 | 0.585 | 0.893 |
| COR-L 105 | 1.12 | 1.2 | 1.1 | 1.04 | 0.964 | 0.706 | 0.929 | 0.732 | 0.883 | 0.81 | 0.967 | 0.761 | 0.655 | 0.652 | 1.34 | 1.21 |  | 1.08 |
| Calu-6 | 1.04 | 1.02 | 0.861 | 0.938 | 0.971 | 0.936 | 0.762 | 0.921 | 1.21 | 0.926 | 0.494 | 0.317 | 0.595 | 0.152 | 1.14 | 0.975 | 1.02 | 0.945 |
| ChaGo-K-1 | 0.962 | 0.97 | 0.873 | 1.13 |  |  |  |  |  | 1.1 |  | 0.751 | 1.1 | 1.14 |  |  |  |  |
| EBC-1 | 0.103 | 0.0925 | 0.123 | 0.0888 | 0.966 | 0.86 | 0.696 | 0.75 | 1.05 | 0.349 | 0.427 | 0.325 | 0.326 | 0.224 | 0.802 | 0.773 | 0.728 | 0.958 |
| EKVX | 0.835 | 0.445 | 0.743 | 0.786 | 1.04 | 0.995 |  | 1.02 | 0.982 | 0.982 | 0.925 | 1.11 | 0.966 | 0.589 | 0.943 | 0.844 | 0.857 | 1.1 |
| EMC-BAC-2 | 1.08 | 0.958 | 1.01 | 1.16 | 0.825 | 0.826 | 0.728 | 0.815 | 0.73 | 1.26 | 1.09 | 1.07 | 1.06 | 1.05 | 0.894 | 0.687 | 0.709 | 0.888 |
| EPLC-272H |  | 0.658 | 0.619 | 0.814 | 1.16 | 1.47 | 1.12 | 1.09 | 1.23 | 1.02 | 1.04 | 1.24 | 1.1 | 0.709 | 1.03 | 0.931 | 0.851 | 1.15 |
| H3255 | 0.781 | 0.863 | 0.913 | 0.854 | 0.954 | 0.97 |  | 0.973 | 1.03 | 0.496 | 0.503 | 0.558 | 0.489 | 0.227 | 0.761 | 0.626 | 0.636 | 0.792 |
| HARA | 0.944 | 0.927 | 0.712 | 0.938 | 0.965 | 1.02 |  | 0.912 | 1.19 | 1.2 | 1.12 | 1.13 | 1.14 | 0.591 | 0.868 | 0.682 | 0.756 | 1.19 |
| HCC-15 | 1.31 | 1 | 0.98 | 1.26 | 0.965 | 0.993 |  | 0.857 | 0.841 | 0.676 | 0.619 | 0.54 | 0.474 | 0.312 | 0.914 | 0.95 | 0.867 | 1.08 |
| HCC-44 |  |  |  |  | 0.79 | 0.647 | 0.532 | 0.549 | 0.531 | 0.966 | 1 | 0.996 | 1.06 | 0.874 | 0.833 | 0.92 | 0.576 | 0.979 |
| HCC-78 | 0.555 | 0.492 | 0.53 | 0.483 | 0.517 | 0.528 | 0.463 | 0.579 | 0.514 | 0.902 | 0.782 | 0.85 | 0.746 | 0.92 | 0.363 | 0.301 | 0.358 | 0.259 |
